Results as given in the NIST ThermoML archive (doi:10.1021/je200903m).

Details: Liquid, isochoric method

CCCCn1cc[n+](C)c1.O=S(=O)([O-])C(F)(F)F [1-butyl-3-methylimidazolium trifluoromethanesulfonate]
Details | mass density [kg/m3]
290.5 K, 40403 kPa | 1326.13
290.51 K, 20585 kPa | 1315.76
290.53 K, 10565 kPa | 1310.84
290.69 K, 30827 kPa | 1321.18
291.26 K, 1592.1 kPa | 1304.62
298.15 K, 9757.7 kPa | 1303.63
298.15 K, 19969 kPa | 1309.73
298.15 K, 20141 kPa | 1309.72
298.15 K, 30285 kPa | 1314.63
298.15 K, 50367 kPa | 1324.98
298.16 K, 9701.7 kPa | 1303.63
298.16 K, 19936 kPa | 1309.73
298.16 K, 30053 kPa | 1314.64
298.16 K, 40303 kPa | 1320.08
298.16 K, 40410 kPa | 1320.08
298.17 K, 10081 kPa | 1303.62
298.17 K, 10432 kPa | 1304.22
298.17 K, 50464 kPa | 1324.97
299.03 K, 2480.8 kPa | 1298.81
305.41 K, 59674 kPa | 1323.93
305.45 K, 10034 kPa | 1297.93
305.45 K, 19292 kPa | 1303.2
305.9 K, 39945 kPa | 1313.54
306 K, 29921 kPa | 1308.61
306 K, 50404 kPa | 1318.95
306.05 K, 19559 kPa | 1302.52
307.17 K, 1752 kPa | 1291.55
313.41 K, 59599 kPa | 1317.95
313.93 K, 49845 kPa | 1312.46
314.21 K, 9839.1 kPa | 1290.64
314.21 K, 20109 kPa | 1296.78
314.21 K, 39744 kPa | 1307.53
314.32 K, 29477 kPa | 1301.43
314.85 K, 831 kPa | 1284.6
321.66 K, 59111 kPa | 1311.47
321.82 K, 29288 kPa | 1295.81
323.07 K, 39773 kPa | 1300.33
323.16 K, 50452 kPa | 1306.39
323.18 K, 10082 kPa | 1283.58
323.2 K, 20072 kPa | 1289.53
323.4 K, 1581.8 kPa | 1277.54
330.39 K, 28233 kPa | 1288.68
330.5 K, 39240 kPa | 1294.79
331.3 K, 241.1 kPa | 1270.51
331.38 K, 10182 kPa | 1276.63
331.38 K, 19050 kPa | 1282.64
331.38 K, 59986 kPa | 1305.41
331.78 K, 49813 kPa | 1299.3
339.84 K, 49769 kPa | 1293.74
340.71 K, 39738 kPa | 1287.53
340.73 K, 10118 kPa | 1269.5
340.75 K, 20227 kPa | 1275.61
340.93 K, 60046 kPa | 1298.28
341.39 K, 30102 kPa | 1281.54
341.68 K, 1330.2 kPa | 1262.9
347.88 K, 58421 kPa | 1292.89
350.01 K, 30185 kPa | 1274.67
350.14 K, 9957.7 kPa | 1262.06
350.15 K, 19909 kPa | 1268.55
350.31 K, 39671 kPa | 1280.63
350.38 K, 50208 kPa | 1286.54

CCn1cc[n+](C)c1.F[B-](F)(F)F [1-ethyl-3-methylimidazolium tetrafluoroborate]
Details | mass density [kg/m3]
284.73 K, 40082 kPa | 1309.71
284.74 K, 29331 kPa | 1305.75
285.12 K, 9993.5 kPa | 1296.4
285.2 K, 19389 kPa | 1300.88
285.8 K, 1326.9 kPa | 1292.98
290.95 K, 50018 kPa | 1309.1
291.3 K, 39987 kPa | 1305.11
291.58 K, 20094 kPa | 1295.79
291.59 K, 10267 kPa | 1292.43
292 K, 30197 kPa | 1300.22
292.03 K, 1055.4 kPa | 1288.31
298.14 K, 10219 kPa | 1287.74
298.14 K, 19834 kPa | 1291.82
298.15 K, 20203 kPa | 1291.81
298.15 K, 29284 kPa | 1295.18
298.15 K, 39774 kPa | 1299.63
298.15 K, 39935 kPa | 1299.63
298.15 K, 50710 kPa | 1304.44
298.15 K, 61191 kPa | 1308.4
298.16 K, 30299 kPa | 1295.16
298.63 K, 1139.7 kPa | 1283.3
304.09 K, 59595 kPa | 1303.87
304.39 K, 39527 kPa | 1294.57
304.61 K, 49734 kPa | 1299.01
304.62 K, 29983 kPa | 1291.2
304.69 K, 10037 kPa | 1282.74
304.69 K, 19721 kPa | 1287.13
305.23 K, 1194.1 kPa | 1278.54
311.4 K, 39938 kPa | 1290.56
311.49 K, 30054 kPa | 1286.49
311.51 K, 60021 kPa | 1298.35
311.55 K, 19542 kPa | 1282.12
311.56 K, 10293 kPa | 1277.95
311.72 K, 50382 kPa | 1293.87
312.05 K, 1111.5 kPa | 1273.28
318.36 K, 19918 kPa | 1277.33
318.37 K, 9976 kPa | 1272.71
318.37 K, 50094 kPa | 1289.9
318.4 K, 39958 kPa | 1285.84
318.49 K, 30004 kPa | 1281.46
318.57 K, 60242 kPa | 1293.23
319.24 K, 1155.6 kPa | 1268
325.39 K, 60094 kPa | 1289.24
325.5 K, 50050 kPa | 1285.18
325.59 K, 30106 kPa | 1276.66
325.59 K, 39966 kPa | 1280.8
325.65 K, 9902.1 kPa | 1267.42
325.66 K, 18720 kPa | 1272.06
326.26 K, 1166.5 kPa | 1262.28
332.57 K, 59788 kPa | 1284.52
332.79 K, 39915 kPa | 1275.99
332.85 K, 50074 kPa | 1280.13
332.87 K, 29859 kPa | 1271.38
332.99 K, 10159 kPa | 1261.67
333.07 K, 19960 kPa | 1266.75
333.62 K, 1252.9 kPa | 1257.28
340.28 K, 59745 kPa | 1279.45
340.35 K, 9969.2 kPa | 1256.69
340.37 K, 19698 kPa | 1261.02
340.39 K, 50227 kPa | 1275.3
340.42 K, 39835 kPa | 1270.69
340.55 K, 29899 kPa | 1266.08
341.04 K, 1357.1 kPa | 1251.73
347.77 K, 59854 kPa | 1274.63
347.97 K, 10024 kPa | 1251.12
348.02 K, 29830 kPa | 1260.33
348.04 K, 19820 kPa | 1256
348.15 K, 49790 kPa | 1269.99
348.24 K, 39938 kPa | 1265.38
355.85 K, 20035 kPa | 1250.42
355.86 K, 29675 kPa | 1255.31
356.01 K, 40147 kPa | 1259.61
356.02 K, 49918 kPa | 1264.68
356.4 K, 59860 kPa | 1269.25
